Assay results published in US8859587B2, “(2E)-3-phenyl-N-[2,2,2-Trifluoro-1-[[8-quinolineamino)thiomethyl]amino]ethyl]-2-acrylamide and pharmaceutical uses thereof” (Chinese PLA General Hospital, priority 2010, dated 2014).

Key:
Format in all cases: cell-based, Wistar rats
[1] = system: caspase-12 and cleaved caspase-12; test: Western blot of caspase-12 and cleaved caspase-12 in TM-induced cardiac muscle cells
Description: (§1) (12000 rpm×10 min), collected supernatant. Nitrocellulose membrane was dipped in a transferring buffer for 15-20 min in advance. Sampled in 50 μg protein/lane, subjected to 10% polyacrylamide gel SDS-PAGE electrophoretic separation, the gel was then tiled in electrotransferring clamp, in which sponge, filter paper, gel, nitrocellulose membrane, filter paper and sponge were mounted from negative electrode to positive electrode in order. Constant current 350 mA, electrotransferred for 45 min. Electrotransferring membrane to […], the nitrocellulose membrane was taken out, the membrane was washed with TBST for 2 min, sealed with 5% defatted milk powder at room temperature for 1 h, added with first antibody (1:1000) and incubated at 4° C. overnight, the membrane was washed with TBST, 3 times×5 min, then […] second antibody was added, incubated at room temperature for 1 h, washed with TBST, 3 times×5 min, soaked separately with TSM1 and TSM2 for 5 min and 10 min, developed with chromogenic substrates 6.6 μl NBT and 3.3 μl BCIP dissolved in 1 ml of TSM2, after bonds become clear, the reaction was terminated by washing with water. After the end of development, the records were stored by scanning or taking photos.

[2] = system: cardiac muscle cells under anoxia; test: Cardiomyocyte apoptosis induced by anoxia, high connotation screening (HCS Reader); details: for Filament strength (actin filament) / Nucleus area / Nucleus strength / Short/long axis ratio of filament / cell count increase in comparison with the anoxia group / light flux / Cell count / Transmembrane potential (mitochondrial): anoxia 16 h; for Cell count / Transmembrane potential (mitochondrial): relative to control group = 1
Description: neonate Wistar rats, rat age: within 24 h, male and female
cardiac muscle cells were separated and cultured by referring to the method of differential adhesion, Wistar neonate […] newborn within 24 h were used, sterilized at skin of ventrum with iodine tincture and ethanol, subjected to thoracotomy using scissors at subxiphoid median line with a deviation to left, heart was taken out after slant thoracotomy and placed in PBS precooled with ice; the heart was softly blown and beaten with 0.01M PBS to remove blood cells and other tissues, then cut into pieces with 0.5 mm^3 size, washed with 0.01M PBS repeatedly for 2-3 times; the pieces were placed in conical flask, added with 4 ml of 0.125% pancretin, 1 ml of 0.1% collagenase II (final concentrations separately being 0.1% and 0.02%), shaken in 37° C. water bath for 10 min, the supernatant was discarded; then 4 ml of 0.125% pancretin and 1 ml of 0.1% collagenase II again, shaken in 37° C. water bath for digestion for 10 min, the supernatant was sucked and transferred to a centrifuge tube, and the supernatant was added with DMEM containing 10% FBS to terminate digestion; the step of shaking and digestion in water bath was repeated for 3-4 times, until the tissue pieces were completely digested; the collected cell suspension was centrifuged under 1000 rpm for 10 min, the supernatant was removed, then a culture medium was added for resuspension; the resuspended cells were inoculated in a cell culture flask, placed in CO2 incubator at 37° C. for incubation for 1.5 h, then the culture medium was sucked out, countered under microscope, then DMEM culture medium containing 10% FBS was used to adjust cell density, inoculated in an amount of 1×10^4 to a 96-well plate, placed in 5% CO2 incubator at 37° C. for 24 h, then half medium was replaced, a culture medium containing 0.1% Brdu was supplementally added; then the medium was replaced once per 48 h, and primary cardiac muscle cells were obtained after 4 days of cultivation.
1. The separated cardiac muscle cells were inoculated to a 96-wells plate, 10^4 cells per well, and the volume of each well was 100 μl (marginal wells were filled with sterile PBS). After being cultivated in 5% CO2 and 37° C. incubator for 4 d, Formula I was separated added at different concentrations (5 μM, 10 μM, 20 μM) and treated for 30 min, then placed in a sealed 37° C. anoxia incubator (O2/CO2, 5:95) and continuously incubated for 16 h, and at the same time, anoxia control wells and the normal control wells were set and cultivated in 5% CO2, 37° C. incubator for 16 h.
2. It was 30 min before the anoxia incubation was finished, each well was supplemented with 50 μl of culture medium and 50 μl of Mitotracker/Hoechst solution, and the cells were continuously incubated at 37° C. for 30 min.
3. 100 μl of the fixing solution was preheated to 37° C. and separately added to each culture well, without sucking out culture medium, and incubation was performed under ventilation at room temperature for 10 min.
4. The solution of each well was sucked out (the plate could be struck), washed with 1× Wash Buffer (100 uL/well) once. Carefulness was kept during operation and washing procedure, and slow sucking and adding liquid to maintain cell adhesion and integrity.
5. Wash Buffer was sucked out, 1× penetrating buffer solution (100 uL/well) was added, incubated at room temperature for 15 min.
6. The penetrating buffer solution in each well was sucked out, washed once with 100 μL/well of 1× Wash Buffer.
7. The Wash Buffer in each well was sucked out (the plate could be struck), each well was added with 50 μl of Alexa Fluor 488 Phalloidin Solution, incubated at room temperature in dark for 30 min.
8. The Alexa Fluor 488 Phalloidin solution in each well was sucked out, washed with 1× Wash Buffer (100 μl/well) twice, and added with 1× Wash Buffer (100 μl/well).
9. The edge of plate was covered with a sealing membrane (for prevention of drying), and assayed with HCS Reader. […]

[3] = system: elF2α and P-elF2α; test: Western blot of elF2α and P-elF2α expression; details: 1, 2, 5, 10, 20, 40 μM for 48 h
Description: as §1

O=C(/C=C/c1ccccc1)NC(NC(=S)Nc1cccc2cccnc12)C(Cl)(Cl)Cl (centres unmarked) [Compound of Formula I, (2E)-3-phenyl-N-[2,2,2-trichloro-1-[[(8-quinolylamino)thiomethyl]amino]ethyl]-2-acrylamide]
expression of Cleaved caspase-12 ([1]; 10, 20, 40 μM + TM 5 μg/ml): gradually decreases with the increase of the concentration | Caspase-12 expression ([1]; different concentrations for 24 h): no significant change | Filament strength (actin filament) ([2]; 5 μM): 498.03 ± 76.67 | Nucleus area ([2]; 5 μM): 109.90 ± 3.97 | Nucleus strength ([2]; 5 μM): 124.90 ± 2.25 | Short/long axis ratio of filament ([2]; 5 μM): 0.75 ± 0.02 | cell count increase in comparison with the anoxia group ([2]; 5 μM): 17.06% | light flux ([2]; 5 μM): 1201.92 ± 29.95 | Cell count ([2]; 5 μM): 88.57% ± 7.64% | Transmembrane potential (mitochondrial) ([2]; 5 μM): 96.69% ± 5.06% | Filament strength (actin filament) ([2]; 10 μM): 503.64 ± 49.23 | Nucleus area ([2]; 10 μM): 107.43 ± 7.77 | Nucleus strength ([2]; 10 μM): 123.21 ± 2.71 | Short/long axis ratio of filament ([2]; 10 μM): 0.74 ± 0.01 | cell count increase in comparison with the anoxia group ([2]; 10 μM): 26.52% | light flux ([2]; 10 μM): 1166.12 ± 91.06 | Cell count ([2]; 10 μM): 98.03% ± 16.24 | Transmembrane potential (mitochondrial) ([2]; 10 μM): 97.19% ± 2.82^ | Filament strength (actin filament) ([2]; 20 μM): 471.83 ± 69.38 | Nucleus area ([2]; 20 μM): 111.90 ± 10.76 | Nucleus strength ([2]; 20 μM): 121.40 ± 2.24 | Short/long axis ratio of filament ([2]; 20 μM): 0.74 ± 0.02 | cell count increase in comparison with the anoxia group ([2]; 20 μM): 30.22% | light flux ([2]; 20 μM): 1214.09 ± 107.59 | Cell count ([2]; 20 μM): 101.73% ± 22.42% | Transmembrane potential (mitochondrial) ([2]; 20 μM): 99.40% ± 2.80% | effect on indexes of cardiac muscle cells under anoxia (nucleus area, nucleus strength, light flux, actin filament, transmembrane potential, cell count) ([2]; highly anoxia condition): significantly improve the above indexes | expression level of P-elF2α [3]: gradually increases with the increase of the concentration | expression levels of elF2α [3]: no significant change
